Measurements reported in patent US10544113B2 (priority 2016, dated 2020).

Tested on: B6 mice
Assay: Tail-flick test
Type: in vivo, mouse
Protocol: In an exemplary in vivo method, a test compound and a MOR antagonist are injected into a mouse pain model (for example, intravenous but not limited), basal latencies are recorded before the treatment and test latencies are recorded at various specified times after the injection, and a time-response curve is recorded and AUC values are calculated to determine whether an analgesic effect is exerted on the mouse. The test compound is confirmed to be an antagonist-to-agonist allosteric modifier of the MOR upon observation of an analgesic effect.
Male wild-type (WT) B6 mice (25-30 g) were kept in a temperature-controlled animal room with a 12-h light/dark cycle. The protocol has been approved by the Institutional Animal Care and Use Committee of the National Health Research Institutes, Taiwan. Animal experiments were carried out in accordance with the Policies on the Use of Animals in Neuroscience Research and the ethical guidelines for investigations of experimental pain in conscious animals, International Association for the Study of Pain. Tail-Flick Analgesia Meter (Columbia Instruments) was used to measure the tail-flick latencies of mice. The cut-off time for each measurement was 10 s to avoid tissue damage. Basal latencies were recorded before treatment and test latencies were recorded 30, 60, 90, 120 and 180 min after an intravenous injection of drugs. […] ED50 values were determined by the up-and-down method reported in Crocker et al., Pharmacol Biochem Behav, 1984, 21, 133-136.
An in vivo study, i.e., tail-flick test, was performed to investigate whether AAMs could change innate character of μ-opioid receptor in the presence of naloxone. […] In mice injected with naloxone (10 mg/kg; s.c.), the ED50 value of compound 58 in inhibition of the tail-flick response was determined to be 23.1±7.1 nmole.

Question: `Cc1cc(C(=O)O)ccc1N1C(=O)CSC1c1ccc(F)cc1` (stereo not drawn) was tested. Which “AUC of tail-flick inhibition” value (12.5 nmole i.t. with naloxone (10 mg/kg; s.c.)) did it give?
Answer: The value was 241.5±111.3 min×s.

Question: What about the “AUC of tail-flick inhibition” value (25 nmole i.t. with naloxone (10 mg/kg; s.c.)) of the same compound?
Answer: Its value is 560.6±96.5 min×s.

Question: And the “AUC of tail-flick inhibition” value (50 nmole i.t. with naloxone (10 mg/kg; s.c.))?
Answer: The value was 649.8±123.3 min×s.

Question: What about the “antinociceptive effect, compound alone” value (B6 mice, 50, 25, 12.5 and 6.25 nmole i.t., no naloxone) of the same compound?
Answer: The value was “didn't exhibit any antinociceptive effects”.

Question: What about the “ED50 in inhibition of the tail-flick response” value (mice injected with naloxone (10 mg/kg; s.c.), compound i.t.) of the same compound?
Answer: The value was 23.1 ± 7.1 nmol.

Question: What about the “antinociception effect in mice injected with saline” value (saline, highest dose 50 nmole i.t.) of the same compound?
Answer: The value was “no antinociception effect was observed”.
